Test results: patent publication US10709707B2, “Methods of treating ocular conditions” (Oyster Point Pharma, Inc., priority 2016, dated 2020)
“And” between values parts separate entries of the source, which are not always exact repeats. Equal values may be shown once.

How the values were obtained:
mouse lymphoma cells = assay: micronucleus test in mouse lymphoma cells; assay type: cell-based; conditions: in vitro
Text: Compound 1 was negative for mutagenicity in both in vitro bioassays—including an Ames test, a micronucleus test in mouse lymphoma cells, and a chromosome aberration assay using cultured human peripheral blood lymphocytes—and an in vivo rat bone marrow micronucleus test.

[1] = target: T1, ganglionic receptor (α3β4) (Homo sapiens, UniProt P30926+P32297); assay: Receptor binding ganglionic receptor, SH-SY5Y membranes
T1 construct: endogenous in cells

[2] = 7-day pilot intranasal toxicity and toxicokinetic study in rats; conditions: for AUC(0-t): AUC0-t
Method: The study design was as follows:
The following parameters and end points were evaluated in this study; clinical signs, body weights, body weight gain, food consumption, ophthalmology, toxicokinetic parameters, gross necropsy findings, organ weights, and histopathologic examination of select tissues, including nasal cavity at levels I-IV and detailed ocular histopathology for all dose groups: histopathology for brain, pharynx, larynx, trachea, lung, and select target tissues (i.e., adrenal gland, liver, and spleen) that were identified in a GLP 13-week oral toxicity study in rats (DSE 2004-0356) in group 1 and 4 animals, and gross lesions.

[3] = target: T2, α7 nicotinic acetylcholine receptor (Rattus norvegicus, UniProt Q05941); assay: Receptor binding α7, inhibition of [3H]-MLA binding, rat brain membranes
T2 construct: from tissue; host or cells: rat brain membranes (per the earlier reading)

a3b2 = target: T3, a3b2 (Homo sapiens, UniProt P17787+P32297); assay: Receptor function a3b2, Ca++ flux; assay type: cell-based
T3 construct: expressed in transfected cells

hERG channel = hERG channel (Homo sapiens, UniProt Q12809); assay: Cardiovascular safety, hERG channel in vitro; assay type: cell-based
[4] = Female, Day 1, 0.9 mg/day (0.5%), intranasal TID
[5] = Female, Day 1, 3.6 mg/day (2%), intranasal TID
[6] = Female, Day 1, 10.8 mg/day (6%), intranasal TID
[7] = Female, Day 7, 0.9 mg/day (0.5%), intranasal TID
[8] = Female, Day 7, 3.6 mg/day (2%), intranasal TID
[9] = Female, Day 7, 10.8 mg/day (6%), intranasal TID
[10] = Male, Day 1, 0.9 mg/day (0.5%), intranasal TID
[11] = Male, Day 1, 3.6 mg/day (2%), intranasal TID
[12] = Male, Day 1, 10.8 mg/day (6%), intranasal TID
[13] = Male, Day 7, 0.9 mg/day (0.5%), intranasal TID
[14] = Male, Day 7, 3.6 mg/day (2%), intranasal TID
[15] = Male, Day 7, 10.8 mg/day (6%), intranasal TID
[16] = female, rat, plasma, inhaled or intranasal, 0.9 mg/day, Female, Day 1, 0.9 mg/day (0.5%), intranasal TID
[17] = female, rat, plasma, inhaled or intranasal, 0.9 mg/day, Female, Day 7, 0.9 mg/day (0.5%), intranasal TID
[18] = female, rat, plasma, inhaled or intranasal, 3.6 mg/day, Female, Day 1, 3.6 mg/day (2%), intranasal TID
[19] = female, rat, plasma, inhaled or intranasal, 3.6 mg/day, Female, Day 7, 3.6 mg/day (2%), intranasal TID
[20] = female, rat, plasma, inhaled or intranasal, 10.8 mg/day, Female, Day 1, 10.8 mg/day (6%), intranasal TID
[21] = female, rat, plasma, inhaled or intranasal, 10.8 mg/day, Female, Day 7, 10.8 mg/day (6%), intranasal TID
[22] = male, rat, plasma, inhaled or intranasal, 0.9 mg/day, Male, Day 1, 0.9 mg/day (0.5%), intranasal TID
[23] = male, rat, plasma, inhaled or intranasal, 0.9 mg/day, Male, Day 7, 0.9 mg/day (0.5%), intranasal TID
[24] = male, rat, plasma, inhaled or intranasal, 3.6 mg/day, Male, Day 1, 3.6 mg/day (2%), intranasal TID
[25] = male, rat, plasma, inhaled or intranasal, 3.6 mg/day, Male, Day 7, 3.6 mg/day (2%), intranasal TID
[26] = male, rat, plasma, inhaled or intranasal, 10.8 mg/day, Male, Day 1, 10.8 mg/day (6%), intranasal TID
[27] = male, rat, plasma, inhaled or intranasal, 10.8 mg/day, Male, Day 7, 10.8 mg/day (6%), intranasal TID

T2 sequence (Q05941 23-502): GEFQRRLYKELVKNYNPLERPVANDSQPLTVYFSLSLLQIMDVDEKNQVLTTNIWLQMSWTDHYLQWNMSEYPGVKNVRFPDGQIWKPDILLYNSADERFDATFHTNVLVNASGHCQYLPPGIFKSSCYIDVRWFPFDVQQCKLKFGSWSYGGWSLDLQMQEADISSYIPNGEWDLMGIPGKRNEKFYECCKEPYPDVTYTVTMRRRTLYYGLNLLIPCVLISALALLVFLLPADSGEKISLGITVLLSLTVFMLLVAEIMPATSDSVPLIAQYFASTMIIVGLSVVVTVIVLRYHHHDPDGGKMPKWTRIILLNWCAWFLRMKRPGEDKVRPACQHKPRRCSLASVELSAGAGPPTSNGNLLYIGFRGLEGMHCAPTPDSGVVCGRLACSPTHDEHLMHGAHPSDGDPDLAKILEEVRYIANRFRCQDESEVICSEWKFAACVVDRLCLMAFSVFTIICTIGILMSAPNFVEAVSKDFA
T3 sequence (P32297 32-505): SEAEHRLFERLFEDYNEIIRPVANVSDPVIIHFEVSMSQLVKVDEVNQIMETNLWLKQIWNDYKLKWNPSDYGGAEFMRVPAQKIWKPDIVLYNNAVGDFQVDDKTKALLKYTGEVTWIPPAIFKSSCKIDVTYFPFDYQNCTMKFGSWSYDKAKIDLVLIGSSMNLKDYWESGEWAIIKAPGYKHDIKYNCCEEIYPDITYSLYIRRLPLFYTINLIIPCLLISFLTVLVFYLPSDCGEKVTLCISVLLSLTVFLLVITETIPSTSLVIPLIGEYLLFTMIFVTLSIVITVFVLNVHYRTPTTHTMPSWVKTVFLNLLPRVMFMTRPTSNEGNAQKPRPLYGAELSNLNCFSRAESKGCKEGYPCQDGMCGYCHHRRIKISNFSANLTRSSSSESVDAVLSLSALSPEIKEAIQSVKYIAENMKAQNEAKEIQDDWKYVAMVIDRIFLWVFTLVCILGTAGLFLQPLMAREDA
T3 sequence (P17787 26-502): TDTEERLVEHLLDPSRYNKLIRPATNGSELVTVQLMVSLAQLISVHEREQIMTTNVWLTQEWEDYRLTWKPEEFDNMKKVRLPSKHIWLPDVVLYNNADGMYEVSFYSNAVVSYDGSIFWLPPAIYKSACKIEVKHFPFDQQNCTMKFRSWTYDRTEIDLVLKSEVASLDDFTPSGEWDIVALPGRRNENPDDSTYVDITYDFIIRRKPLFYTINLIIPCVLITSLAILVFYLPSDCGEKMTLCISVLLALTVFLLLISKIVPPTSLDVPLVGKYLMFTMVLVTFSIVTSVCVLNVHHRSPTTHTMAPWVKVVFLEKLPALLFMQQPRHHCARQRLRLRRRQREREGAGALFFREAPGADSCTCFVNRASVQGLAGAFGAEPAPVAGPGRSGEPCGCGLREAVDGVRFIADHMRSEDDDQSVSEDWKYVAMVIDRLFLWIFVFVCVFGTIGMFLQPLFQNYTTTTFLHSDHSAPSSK
T1 sequence (P32297 32-505): as the sequence (P32297 32-505) above
T1 sequence (P30926 22-498): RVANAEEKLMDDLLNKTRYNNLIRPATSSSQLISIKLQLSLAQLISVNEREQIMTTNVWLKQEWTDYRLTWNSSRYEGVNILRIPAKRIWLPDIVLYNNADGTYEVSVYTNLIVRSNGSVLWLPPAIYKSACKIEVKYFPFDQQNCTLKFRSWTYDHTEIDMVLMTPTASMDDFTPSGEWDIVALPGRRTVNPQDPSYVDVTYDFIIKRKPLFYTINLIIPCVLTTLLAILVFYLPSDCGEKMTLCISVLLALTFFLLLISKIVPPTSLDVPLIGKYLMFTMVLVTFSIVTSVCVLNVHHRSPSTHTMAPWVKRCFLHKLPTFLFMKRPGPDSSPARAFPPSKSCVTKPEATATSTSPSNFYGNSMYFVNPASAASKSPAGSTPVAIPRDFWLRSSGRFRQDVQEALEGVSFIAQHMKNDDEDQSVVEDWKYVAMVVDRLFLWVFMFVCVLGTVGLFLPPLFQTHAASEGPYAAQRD
Chain of hERG channel (Q12809 whole entry): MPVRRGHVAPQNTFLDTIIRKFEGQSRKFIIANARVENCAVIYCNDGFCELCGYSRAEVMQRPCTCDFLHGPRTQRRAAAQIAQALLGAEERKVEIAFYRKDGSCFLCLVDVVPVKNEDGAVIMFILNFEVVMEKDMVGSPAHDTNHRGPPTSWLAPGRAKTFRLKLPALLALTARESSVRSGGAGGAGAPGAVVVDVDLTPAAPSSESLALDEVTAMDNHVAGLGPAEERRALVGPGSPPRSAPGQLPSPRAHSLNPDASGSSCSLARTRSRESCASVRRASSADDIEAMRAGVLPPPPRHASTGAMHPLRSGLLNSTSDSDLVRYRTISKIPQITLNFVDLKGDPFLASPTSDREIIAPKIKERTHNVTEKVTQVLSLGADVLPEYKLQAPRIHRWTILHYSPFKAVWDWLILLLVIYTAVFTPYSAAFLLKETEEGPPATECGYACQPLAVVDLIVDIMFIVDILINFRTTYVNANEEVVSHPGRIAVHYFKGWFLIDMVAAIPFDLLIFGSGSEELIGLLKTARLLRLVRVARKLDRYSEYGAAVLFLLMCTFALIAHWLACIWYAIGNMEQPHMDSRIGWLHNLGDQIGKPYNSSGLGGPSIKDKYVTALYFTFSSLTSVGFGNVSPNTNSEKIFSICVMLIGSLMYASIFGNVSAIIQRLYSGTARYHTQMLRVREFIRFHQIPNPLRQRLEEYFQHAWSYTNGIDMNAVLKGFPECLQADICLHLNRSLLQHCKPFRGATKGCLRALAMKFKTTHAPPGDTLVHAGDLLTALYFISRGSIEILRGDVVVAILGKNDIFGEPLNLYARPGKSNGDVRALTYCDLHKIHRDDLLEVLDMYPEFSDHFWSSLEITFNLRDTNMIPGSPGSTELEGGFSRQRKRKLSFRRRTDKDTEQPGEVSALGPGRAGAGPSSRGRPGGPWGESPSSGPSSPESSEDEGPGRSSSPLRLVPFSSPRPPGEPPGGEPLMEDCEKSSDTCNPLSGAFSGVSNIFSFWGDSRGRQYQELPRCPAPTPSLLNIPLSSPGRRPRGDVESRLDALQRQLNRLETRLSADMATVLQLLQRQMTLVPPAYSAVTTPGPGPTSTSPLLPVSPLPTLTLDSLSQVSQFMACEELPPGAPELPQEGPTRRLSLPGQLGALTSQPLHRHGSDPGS

Compound: C(=C\[C@H]1CCNC1)/c1cncnc1 [Compound 1, (R)-5-((E)-2-pyrrolidin-3-ylvinyl)pyrimidine]
- mutagenicity, micronucleus test (mouse lymphoma cells): negative
- Ki ([1]; Human ganglion-type (a3b4*), assay and tissue type not given): 8.8 µM
- Ki ([1]; [3H]-epibatidine, SH-SY5Y membranes): 0.6 µM and 0.62 µM
- C1 (peak concentration following 1st instillation) [2, 4]: 26.1 ng/mL
- C2 (peak concentration following 2nd instillation) [2, 4]: 34.8 ng/mL
- C3 (peak concentration following 3rd instillation) [2, 4]: 34.9 ng/mL
- DN AUC0-t (dose-normalized) [2, 4]: 154 (ng*h/mL)/(mg)
- C1 (peak concentration following 1st instillation) [2, 5]: 50.2 ng/mL
- C2 (peak concentration following 2nd instillation) [2, 5]: 119 ng/mL
- C3 (peak concentration following 3rd instillation) [2, 5]: 278 ng/mL
- DN AUC0-t (dose-normalized) [2, 5]: 174 (ng*h/mL)/(mg)
- C1 (peak concentration following 1st instillation) [2, 6]: 326 ng/mL
- C2 (peak concentration following 2nd instillation) [2, 6]: 481 ng/mL
- C3 (peak concentration following 3rd instillation) [2, 6]: 329 ng/mL
- DN AUC0-t (dose-normalized) [2, 6]: 386 (ng*h/mL)/(mg)
- C1 (peak concentration following 1st instillation) [2, 7]: 20.3 ng/mL
- C2 (peak concentration following 2nd instillation) [2, 7]: 16.3 ng/mL
- C3 (peak concentration following 3rd instillation) [2, 7]: 37.5 ng/mL
- DN AUC0-t (dose-normalized) [2, 7]: 164 (ng*h/mL)/(mg)
- C1 (peak concentration following 1st instillation) [2, 8]: 68.0 ng/mL
- C2 (peak concentration following 2nd instillation) [2, 8]: 79.9 ng/mL
- C3 (peak concentration following 3rd instillation) [2, 8]: 76.0 ng/mL
- DN AUC0-t (dose-normalized) [2, 8]: 93.5 (ng*h/mL)/(mg)
- C1 (peak concentration following 1st instillation) [2, 9]: 218 ng/mL
- C2 (peak concentration following 2nd instillation) [2, 9]: 224 ng/mL
- C3 (peak concentration following 3rd instillation) [2, 9]: 210 ng/mL
- DN AUC0-t (dose-normalized) [2, 9]: 137 (ng*h/mL)/(mg)
- C1 (peak concentration following 1st instillation) [2, 10]: 51.9 ng/mL
- C2 (peak concentration following 2nd instillation) [2, 10]: 36.3 ng/mL
- C3 (peak concentration following 3rd instillation) [2, 10]: 54.2 ng/mL
- C1 (peak concentration following 1st instillation) [2, 11]: 86.4 ng/mL
- C2 (peak concentration following 2nd instillation) [2, 11]: 343 ng/mL
- C3 (peak concentration following 3rd instillation) [2, 11]: 134 ng/mL
- DN AUC0-t (dose-normalized) [2, 11]: 230 (ng*h/mL)/(mg)
- C1 (peak concentration following 1st instillation) [2, 12]: 208 ng/mL
- C2 (peak concentration following 2nd instillation) [2, 12]: 332 ng/mL
- C3 (peak concentration following 3rd instillation) [2, 12]: 924 ng/mL
- DN AUC0-t (dose-normalized) [2, 12]: 157 (ng*h/mL)/(mg)
- C1 (peak concentration following 1st instillation) [2, 13]: 12.4 ng/mL
- C2 (peak concentration following 2nd instillation) [2, 13]: 28.0 ng/mL
- C3 (peak concentration following 3rd instillation) [2, 13]: 33.7 ng/mL
- C1 (peak concentration following 1st instillation) [2, 14]: 110 ng/mL
- C2 (peak concentration following 2nd instillation) [2, 14]: 53.8 ng/mL
- C3 (peak concentration following 3rd instillation) [2, 14]: 25.5 ng/mL
- DN AUC0-t (dose-normalized) [2, 14]: 82.7 (ng*h/mL)/(mg)
- C1 (peak concentration following 1st instillation) [2, 15]: 166 ng/mL
- C2 (peak concentration following 2nd instillation) [2, 15]: 209 ng/mL
- C3 (peak concentration following 3rd instillation) [2, 15]: 225 ng/mL
- DN AUC0-t (dose-normalized) [2, 15]: 81.3 (ng*h/mL)/(mg)
- half-life ([2]; both, rat, plasma, inhaled or intranasal): 1.4 h
- AUC(0-t) [2, 16]: 0.138 µg·h/mL
- AUC(0-t) [2, 17]: 0.148 µg·h/mL
- Cmax [2, 16]: 0.0349 µg/mL
- Cmax [2, 17]: 0.0375 µg/mL
- Tmax [2, 16]: 12.1 h
- Tmax [2, 17]: 12.1 h
- AUC(0-t) [2, 18]: 0.626 µg·h/mL
- AUC(0-t) [2, 19]: 0.336 µg·h/mL
- Cmax [2, 18]: 0.278 µg/mL
- Cmax [2, 19]: 0.0799 µg/mL
- Tmax [2, 18]: 12.1 h
- Tmax [2, 19]: 6.08 h
- AUC(0-t) [2, 20]: 4.17 µg·h/mL
- AUC(0-t) [2, 21]: 1.48 µg·h/mL
- Cmax [2, 20]: 0.481 µg/mL
- Cmax [2, 21]: 0.224 µg/mL
- Tmax [2, 20]: 6.08 h
- Tmax [2, 21]: 6.08 h
- Cmax [2, 22]: 0.0542 µg/mL
- Cmax [2, 23]: 0.0337 µg/mL
- Tmax [2, 22]: 12.1 h
- Tmax [2, 23]: 12.1 h
- AUC(0-t) [2, 24]: 0.829 µg·h/mL
- AUC(0-t) [2, 25]: 0.298 µg·h/mL
- Cmax [2, 24]: 0.343 µg/mL
- Cmax [2, 25]: 0.11 µg/mL
- Tmax [2, 24]: 6.08 h
- Tmax [2, 25]: 0.083 h
- AUC(0-t) [2, 26]: 1.7 µg·h/mL
- AUC(0-t) [2, 27]: 0.878 µg·h/mL
- Cmax [2, 26]: 0.924 µg/mL
- Cmax [2, 27]: 0.225 µg/mL
- Tmax [2, 26]: 12.1 h
- Tmax [2, 27]: 12.1 h
- time of peak systemic exposure after each instillation ([2]; rat, intranasal TID, post administration): 5 min
- survival ([2]; rats, intranasal 0.5%, 2% and 6%, 3 times per day for 7 days): survival of all animals to scheduled euthanasia
- no-observed-adverse-effect-level (NOAEL) ([2]; rats, intranasal 3 times per day for 7 days): 180 μL 6% Compound 1 per animal per day
- Ki ([3]; Rat a7, assay and tissue type not given): 3.5 µM
- Ki ([3]; [3H]-MLA, rat brain hippocampal membranes): 5.5 µM and 5.53 µM
- EC50 (a3b2; Human a3b2, Ca++ Flux): 8.7 µM
- Emax (a3b2; Human a3b2, Ca++ Flux): 66%
- agonist type (a3b2; α3β2 subtype): partial agonist
- IC50 (hERG channel): 285 µM
